# Source: patent US20220143026A1, “TRIPLE COMBINATION TO TREAT B-CELL MALIGNANCIES” (TG Therapeutics, Inc., priority 2020, published 2022)
# Read-outs that look alike come from different tables or passages of the source. Marks after values point to notes of the source that are not given here.
# T1: CD20 antigen (Homo sapiens, UniProt P11836)
# T1 sequence (P11836 1-297): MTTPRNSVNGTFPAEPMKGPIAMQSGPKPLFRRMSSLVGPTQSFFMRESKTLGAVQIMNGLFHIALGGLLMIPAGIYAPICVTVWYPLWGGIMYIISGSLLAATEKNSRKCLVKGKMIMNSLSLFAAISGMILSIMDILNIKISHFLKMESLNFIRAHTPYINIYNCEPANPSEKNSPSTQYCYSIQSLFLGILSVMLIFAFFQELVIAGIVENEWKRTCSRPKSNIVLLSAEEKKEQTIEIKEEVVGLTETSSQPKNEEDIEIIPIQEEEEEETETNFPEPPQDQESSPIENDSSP
# B1: Ublituximab: chimeric monoclonal antibody targeting a unique epitope on the CD20 antigen, glycoengineered for enhanced affinity for Fcγ RIIIa receptors (antibody, V domains shown)
# VH: QAYLQQSGAELVRPGASVKMSCKASGYTFTSYNMHWVKQTPRQGLEWIGGIYPGNGDTSYNQKFKGKATLTVGKSSSTAYMQLSSLTSEDSAVYFCARYDYNYAMDYWGQGTSVTVSS
# VL: QIVLSQSPAILSASPGEKVTMTCRASSSVSYMHWYQQKPGSSPKPWIYATSNLASGVPARFSGSGSGTSYSFTISRVEAEDAATYYCQQWTFNPPTFGGGTRLEIK
# modifications: Ublituximab Variable heavy chain; Ublituximab Variable light chain
# What was measured:
# [1] = in vivo; cited from earlier work
# [2] = comparison of atrial fibrillation adverse events between BTK inhibitors; assay type: in vivo, human; details: N=106
# [3] = Phase 1/1b clinical trial, pharmacokinetics; assay type: in vivo, human; details: patients
# BTK [4] = target: T2, BTK (Homo sapiens, UniProt Q06187); details: read-out: kinase inhibition IC50 against BTK; cited from earlier work
# T2 sequence (Q06187 whole entry): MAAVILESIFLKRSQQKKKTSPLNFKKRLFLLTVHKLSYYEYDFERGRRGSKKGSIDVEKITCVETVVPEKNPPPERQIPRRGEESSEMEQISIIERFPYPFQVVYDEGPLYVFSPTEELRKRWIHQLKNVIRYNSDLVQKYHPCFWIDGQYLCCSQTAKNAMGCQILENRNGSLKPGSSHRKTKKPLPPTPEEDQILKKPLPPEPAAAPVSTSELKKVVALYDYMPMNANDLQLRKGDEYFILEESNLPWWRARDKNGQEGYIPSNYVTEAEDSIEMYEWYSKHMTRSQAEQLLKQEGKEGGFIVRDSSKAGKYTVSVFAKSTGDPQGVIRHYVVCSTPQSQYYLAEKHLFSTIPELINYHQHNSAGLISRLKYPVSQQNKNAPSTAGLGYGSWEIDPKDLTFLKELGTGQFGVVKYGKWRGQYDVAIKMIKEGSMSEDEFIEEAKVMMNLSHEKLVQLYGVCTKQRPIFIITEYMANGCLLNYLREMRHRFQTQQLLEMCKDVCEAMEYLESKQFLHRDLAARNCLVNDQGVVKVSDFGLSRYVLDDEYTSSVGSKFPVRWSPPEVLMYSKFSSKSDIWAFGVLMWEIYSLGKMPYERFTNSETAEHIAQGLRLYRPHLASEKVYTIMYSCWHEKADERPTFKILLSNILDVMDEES
# [5] = human, in vivo
# EGFR = EGFR (Homo sapiens, UniProt P00533); details: cited from earlier work
# EGFR, sequence (P00533 25-1210, species assumed): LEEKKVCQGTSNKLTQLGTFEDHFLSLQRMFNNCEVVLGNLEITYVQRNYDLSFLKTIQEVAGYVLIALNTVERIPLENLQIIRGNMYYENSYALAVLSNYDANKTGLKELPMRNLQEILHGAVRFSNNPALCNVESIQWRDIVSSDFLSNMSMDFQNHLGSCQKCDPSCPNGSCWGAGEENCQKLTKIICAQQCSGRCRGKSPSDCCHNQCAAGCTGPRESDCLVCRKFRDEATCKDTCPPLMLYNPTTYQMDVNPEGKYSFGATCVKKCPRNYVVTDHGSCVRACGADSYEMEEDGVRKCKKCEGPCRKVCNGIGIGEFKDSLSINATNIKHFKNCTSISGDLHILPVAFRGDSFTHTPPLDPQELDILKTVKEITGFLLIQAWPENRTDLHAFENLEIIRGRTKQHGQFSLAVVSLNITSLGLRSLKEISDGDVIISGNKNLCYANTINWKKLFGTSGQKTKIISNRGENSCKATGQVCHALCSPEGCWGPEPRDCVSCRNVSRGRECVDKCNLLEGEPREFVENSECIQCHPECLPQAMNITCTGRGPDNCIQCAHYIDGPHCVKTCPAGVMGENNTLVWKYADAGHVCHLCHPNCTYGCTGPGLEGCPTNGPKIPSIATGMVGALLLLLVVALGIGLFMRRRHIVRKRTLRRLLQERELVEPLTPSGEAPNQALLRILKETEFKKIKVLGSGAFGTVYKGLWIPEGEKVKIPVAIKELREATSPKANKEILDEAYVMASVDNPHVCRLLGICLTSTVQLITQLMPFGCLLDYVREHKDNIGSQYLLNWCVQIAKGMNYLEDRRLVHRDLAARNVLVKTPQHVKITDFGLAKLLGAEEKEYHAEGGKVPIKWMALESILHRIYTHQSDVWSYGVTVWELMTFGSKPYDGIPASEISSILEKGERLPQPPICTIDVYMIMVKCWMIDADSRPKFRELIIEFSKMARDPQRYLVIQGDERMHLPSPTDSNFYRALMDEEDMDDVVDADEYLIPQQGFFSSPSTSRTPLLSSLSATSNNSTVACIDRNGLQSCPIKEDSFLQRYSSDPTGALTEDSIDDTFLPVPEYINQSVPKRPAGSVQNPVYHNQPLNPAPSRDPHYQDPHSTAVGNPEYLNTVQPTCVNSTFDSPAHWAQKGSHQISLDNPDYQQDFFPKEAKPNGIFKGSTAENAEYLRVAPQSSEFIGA
# [6] = system: follicular lymphoma (FL) DOHH-2 cell line; details: read-out: IC50, inhibition of growth; cited from earlier work
# [7] = system: mantle cell lymphoma (MCL) Mino cell line; details: read-out: IC50, inhibition of growth; cited from earlier work
# DLBCL SU-DHL-6 cell line = details: read-out: IC50, inhibition of growth; cited from earlier work
# [8] = system: IgM-activated BCR pathway; details: DOHH-2 cells; cited from earlier work
# JEKO cells = details: cited from earlier work
# BTK [9] = target: T3, BTK (Mus musculus, UniProt P35991); details: mice, single dose of TG-1701 at 12.5 mg/kg; cited from earlier work
# T3 construct: from tissue; host or cells: mouse spleen
# T3 sequence (P35991 whole entry): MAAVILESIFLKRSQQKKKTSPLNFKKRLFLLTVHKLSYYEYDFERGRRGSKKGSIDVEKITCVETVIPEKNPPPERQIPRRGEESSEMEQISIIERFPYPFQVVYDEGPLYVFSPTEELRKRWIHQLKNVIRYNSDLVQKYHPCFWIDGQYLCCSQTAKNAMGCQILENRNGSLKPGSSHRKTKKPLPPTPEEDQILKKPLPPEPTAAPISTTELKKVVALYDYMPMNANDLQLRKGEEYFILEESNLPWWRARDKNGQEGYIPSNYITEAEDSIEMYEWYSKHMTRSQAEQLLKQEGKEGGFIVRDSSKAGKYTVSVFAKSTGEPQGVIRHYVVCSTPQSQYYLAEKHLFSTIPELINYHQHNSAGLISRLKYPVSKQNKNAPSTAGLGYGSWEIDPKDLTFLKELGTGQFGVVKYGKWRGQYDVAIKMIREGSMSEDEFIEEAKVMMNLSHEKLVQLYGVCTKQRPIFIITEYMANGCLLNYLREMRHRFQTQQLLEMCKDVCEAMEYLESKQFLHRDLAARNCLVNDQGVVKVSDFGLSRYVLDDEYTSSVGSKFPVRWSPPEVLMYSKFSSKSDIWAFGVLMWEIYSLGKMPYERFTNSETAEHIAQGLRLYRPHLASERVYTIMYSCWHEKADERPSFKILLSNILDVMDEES
# [10] = system: SU-DHL-6 (GCB-DLBCL), Mino (MCL), and OCI-Ly10 (ABC-DLBCL) xenograft models; details: SU-DHL-6, Mino, OCI-Ly10 xenografts; cited from earlier work
# B-NHL cell lines [11] = details: cited from earlier work
# B-NHL cell lines [12] = details: cited from earlier work; remark: listed apart in the source
# BTK [13] = target: T2, BTK; test: Phase 1/1b clinical trial, pharmacodynamics (BTK occupancy); assay type: in vivo; design: endogenous in cells
# [14] = Phase 1/1b clinical trial, safety; details: for treatment discontinuation: Death: CLL, N = 20, death due to SARS-CoV-2 infection
# B-cell malignancies = test: Phase 1/1b clinical trial, efficacy (response)
# Protocol: All patients were treated until disease progression, unacceptable toxicity, or investigator/patient decision to withdraw.
# All patients were treated until disease progression, unacceptable toxicity, or investigator/patient decision to withdraw study consent.
# Evaluable patients had at least one response assessment.
# [15] = ibrutinib n=263, acalabrutinib n=266; cited from earlier work
# [16] = system: relapsed and refractory hematologic malignancies; details: cited from earlier work
# CD20 antigen = target: T1, CD20 antigen; details: cited from earlier work
# [17] = monotherapy 200 mg, CLL cohort, N = 20
# [18] = monotherapy 200 mg, MCL cohort, N = 18
# [19] = monotherapy 200 mg, WM cohort, N = 19
# [20] = monotherapy dose escalation 100-400 mg, N = 23
# [21] = patients with relapsed or refractory hematologic malignancies
molecule,measurement,setting,value
CC[C@H](Nc1ncnc2[nH]cnc12)c1nc2cccc(F)c2c(=O)n1-c1ccccc1 [Idelalisib],"immune mediated colitis, grade 3",[1],≥ 5%
same,"pneumonitis, grade 3",[1],≥ 4%
same,"transaminitis, grade 3",[1],≥ 8%
"CC#CC(=O)N1CC[C@@H](n2cc(-c3ccc(Oc4c(F)cccc4F)cc3)c3c(N)n[nH]c(=O)c32)C1 [TG-1701, (R)-4-amino-1-(1-(but-2-ynoyl)pyrrolidin-3-yl)-3-(4-(2,6-difluorophenoxy)phenyl)-1,6-dihydro-7H-pyrrolo[2,3-d]pyridazin-7-one]",% incidence of any grade Afib,[2],3.8%
same,"% incidence of atrial fibrillation (Afib), Grade 3 or greater",[2],1.9%
same,"kinetics, dose proportionality of exposure",[3],Linear kinetics
same,IC50,BTK [4],3 nM
same,G≥3 neutropenia,[5],8%
same,changes between pre- and on-treatment diastolic blood pressure nor QTc,[5],No significant changes
same,patients with dose reduction due to treatment-related adverse events,[5],Four
same,treatment discontinuations due to adverse events,[5],no treatment discontinuations due to adverse events
same,ventricular tachyarrhythmia,[5],No cases
same,IC50,EGFR,270 nM
same,IC50,[6],369 nM
same,IC50,[7],449 nM
same,IC50,DLBCL SU-DHL-6 cell line,313 nM
same,"IgM-activated BCR pathway: phosphorylation of BTK, PLCy2, and ERK1/2",[8],inhibited
same,CXCL12-dependent migration,JEKO cells,blocked
same,IgM-dependent CD69 expression,JEKO cells,blocked
same,adhesion of JEKO cells to VCAM-1,JEKO cells,blocked
same,BTK occupancy in the spleen,BTK [9],completely occupied
same,anti-tumor efficacy,[10],potent anti-tumor activity equivalent to or greater than ibrutinib
same,"FcγR-driven ADCC and ADCP activity of anti-CD20 antibodies (e.g., ublituximab)",B-NHL cell lines [11],does not impair
same,ADCC activity of ublituximab in the presence of the BTK inhibitor,"B-NHL cell lines [11]; compared to monotherapy ADCC activity of ublituximab, across cell lines",not significantly different
same,ADCP activity of rituximab in the presence of the BTK inhibitor,B-NHL cell lines [12],conserved to a greater extent
same,ADCP activity of ublituximab in combination with the BTK inhibitor,B-NHL cell lines [12]; increasing concentrations,conserved at all dose levels tested
same,BTK occupancy,BTK [13]; 100 mg QD,full BTK occupancy
same,saturation of the BTK,BTK [13]; all dose levels studied,~100%
same,receptor occupancy at 100 mg,"BTK [13]; human, 100 mg QD",≥ 99%
same,treatment discontinuation: Death,[14]; dose-expansion 200 mg,1^‡ N(%)
same,treatment discontinuation: Death,[14]; dose-expansion 300 mg,2^‡ N(%)
same,hematologic variables in patients with anemia and thrombocytopenia at baseline,B-cell malignancies; CLL 200-mg and 300-mg cohorts,sustained improvement
same,lymphocytosis resolution to normal or less than 50% of baseline,B-cell malignancies; CLL monotherapy patients,57.1%
same,ORR,"B-cell malignancies; CLL patients evaluable for response, Example 2",95.6%
same,median duration of response,"B-cell malignancies; CLL patients, Example 2",has not been reached
same,treatment discontinuation: Progression by iwCLL criteria,"B-cell malignancies; CLL, dose-escalation 100-400 mg, N = 6",1 N(%)
same,complete responses (CR) confirmed,B-cell malignancies; TG-1701 monotherapy,No complete responses
same,ORR,B-cell malignancies; [17],95%
same,Stable disease,B-cell malignancies; [17],1 (5) N (%)
same,Partial response,"B-cell malignancies; monotherapy 200 mg, CLL cohort, N = 20, includes PR and PR-L",19 (95)^b N (%)
same,ORR,B-cell malignancies; [18],50%
same,Partial response,B-cell malignancies; [18],9 (50) N (%)
same,Progressive disease,B-cell malignancies; [18],3 (17) N (%)
same,Stable disease,B-cell malignancies; [18],6 (33) N (%)
same,Minor response,B-cell malignancies; [19],6 (32) N (%)
same,ORR,B-cell malignancies; [19],95%
same,Partial response,B-cell malignancies; [19],12 (63) N (%)
same,Progressive disease,B-cell malignancies; [19],1 (5) N (%)
same,Minor response,B-cell malignancies; [20],1 (4) N (%)
same,ORR,B-cell malignancies; [20],52%
same,Partial response,B-cell malignancies; [20],11 (48) N (%)
same,Progressive disease,B-cell malignancies; [20],3 (13) N (%)
same,Stable disease,B-cell malignancies; [20],8 (35) N (%)
CC#CC(=O)N1CCC[C@H]1c1nc(-c2ccc(C(=O)Nc3ccccn3)cc2)c2c(N)nccn12 [acalabrutinib],% incidence of any grade Afib,[15],9%
same,"% incidence of atrial fibrillation (Afib), Grade 3 or greater",[15],4.5%
"CC(C)Oc1ccc(-c2nn([C@@H](C)c3oc4ccc(F)cc4c(=O)c3-c3cccc(F)c3)c3ncnc(N)c23)cc1F [umbralisib, (S)-2-(1-(4-amino-3-(3-fluoro-4-isopropoxyphenyl)-1H-pyrazolo[3,4-d]pyrimidin-1-yl)ethyl)-6-fluoro-3-(3-fluorophenyl)-4H-chromen-4-one]",doses with signs of clinical activity,[16]; in vivo,≥ 800 mg each day
same,hepatic toxicity,[16]; [21],no reported hepatic toxicity
same,tolerability,[16]; [21],well-tolerated
same,patients with dose reduction of umbralisib due to G3-4 ALT elevation,"[14]; combination arm, dose escalation",3 patients
B1,ADCC activity compared with rituximab and ofatumab,CD20 antigen,greater
